Data reported in patent US20180334436A1 (VIIV HEALTHCARE UK LIMITED, priority 2015, published 2018).

Tested on: HIV
Assay: MT4 assay (anti-HIV activity)
Type: cell-based
Conditions: Human immunodeficiency virus 1, 96 h, antiviral HIV activity in HTLV-1 transformed cell line MT-4; luciferase read 96 hours later; 10 point dose response
Procedure: Antiviral HIV activity and cytotoxicity values for compounds of the invention from Table 1 were measured in parallel in the HTLV-1 transformed cell line MT-4 based on the method previously described (Hazen et al., 2007, In vitro antiviral activity of the novel, tyrosyl-based human immunodeficiency virus (HIV) type 1 protease inhibitor brecanavir (GW640385) in combination with other antiretrovirals and against a panel of protease inhibitor-resistant HIV (Hazen et al., “In vitro antiviral activity of the novel, tyrosyl-based human immunodeficiency virus (HIV) type 1 protease inhibitor brecanavir (GW640385) in combination with other antiretrovirals and against a panel of protease inhibitor-resistant HIV”, Antimicrob. Agents Chemother. 2007, 51: 3147-3154; and Pauwels et al., “Sensitive and rapid assay on MT-4 cells for the detection of antiviral compounds against the AIDS virus”, J. of Virological Methods 1987, 16: 171-185).
Luciferase activity was measured 96 hours later by adding a cell titer glo (Promega, Madison, Wis.). Percent inhibition of cell protection data was plotted relative to no compound control. Under the same condition, cytotoxicity of the compounds was determined using cell titer Glo™ (Promega, Madison, Wis.). IC50s were determined from a 10 point dose response curve using 3-4-fold serial dilution for each compound, which spans a concentration range >1000 fold.
These values are plotted against the molar compound concentrations using the standard four parameter logistic equation:
y=((Vmax*x̂n)/(K̂n+x̂n))+Y2
Y2=minimum y n=slope factor
Vmax=maximum y x=compound concentration [M]

## Cc1ccc(-c2c(C)c3c(c(C)c2[C@H](OC(C)(C)C)C(=O)O)CCN(C2CCCCC2)C3)cc1 [Example 29, (S)-2-(tert-Butoxy)-2-(2-cyclohexyl-5,8-dimethyl-7-(p-tolyl)-1,2,3,4-tetrahydroisoquinolin-6-yl)acetic Acid]
  IC50: 13 nM

## Cc1ccc(-c2c(C)c3c(c(C)c2[C@H](OC(C)(C)C)C(=O)O)CCN(Cc2cccc(F)c2)C3)cc1 [Example 30, (S)-2-(tert-Butoxy)-2-(2-(3-fluorobenzyl)-5,8-dimethyl-7-(p-tolyl)-1,2,3,4-tetrahydroisoquinolin-6-yl)acetic Acid]
  IC50: 382 nM

## Cc1ccc(-c2c(C)c3c(c(C)c2[C@H](OC(C)(C)C)C(=O)O)CCN(CC2CCCCC2)C3)cc1 [Example 31, (S)-2-(tert-Butoxy)-2-(2-(cyclohexylmethyl)-5,8-dimethyl-7-(p-tolyl)-1,2,3,4-tetrahydroisoquinolin-6-yl)acetic Acid]
  IC50: 50 nM

## Cc1ccc(-c2c(C)c3c(c(C)c2[C@H](OC(C)(C)C)C(=O)O)CCN(C2CCCC2)C3)cc1 [Example 32, (S)-2-(tert-Butoxy)-2-(2-cyclopentyl-5,8-dimethyl-7-(p-tolyl)-1,2,3,4-tetrahydroisoquinolin-6-yl)acetic Acid]
  IC50: 96 nM

## Cc1ccc(-c2c(C)c3c(c(C)c2[C@H](OC(C)(C)C)C(=O)O)CCN(CC(C)(C)C)C3)cc1 [Example 33, (S)-2-(tert-Butoxy)-2-(5,8-dimethyl-2-neopentyl-7-(p-tolyl)-1,2,3,4-tetrahydroisoquinolin-6-yl)acetic Acid]
  IC50: 37 nM

## Cc1ccc(-c2c(C)c3c(c(C)c2[C@H](OC(C)(C)C)C(=O)O)CCN(CCc2ccccc2)C3)cc1 [Example 34, (S)-2-(tert-Butoxy)-2-(5,8-dimethyl-2-phenethyl-7-(p-tolyl)-1,2,3,4-tetrahydroisoquinolin-6-yl)acetic Acid]
  IC50: 165 nM

## Cc1ccc(-c2c(C)c3c(c(C)c2[C@H](OC(C)(C)C)C(=O)O)CCN(C(=O)NC2CCCCC2)C3)cc1 [Example 35, (S)-2-(tert-Butoxy)-2-(2-(cyclohexylcarbamoyl)-5,8-dimethyl-7-(p-tolyl)-1,2,3,4-tetrahydroisoquinolin-6-yl)acetic Acid]
  IC50: 360 nM

## Cc1ccc(-c2c(C)c3c(c(C)c2[C@H](OC(C)(C)C)C(=O)O)CCN(c2ccccc2)C3)cc1 [Example 36, (S)-2-(tert-Butoxy)-2-(5,8-dimethyl-2-phenyl-7-(p-tolyl)-1,2,3,4-tetrahydroisoquinolin-6-yl)acetic Acid]
  IC50: 148 nM

## Cc1ccc(-c2c(C)c3c(c(C)c2[C@H](OC(C)(C)C)C(=O)O)CN(C(=O)CC2CCCCC2)CC3)cc1 [Example 37, (S)-2-(tert-butoxy)-2-(2-(2-cyclohexylacetyl)-5,8-dimethyl-6-(p-tolyl)-1,2,3,4-tetrahydroisoquinolin-7-yl)acetic Acid]
  IC50: 118 nM

## Cc1ccc(-c2c(C)c3c(c(C)c2[C@H](OC(C)(C)C)C(=O)O)CCN(S(=O)(=O)N2CCCCC2)C3)cc1 [Example 38, (S)-2-(tert-butoxy)-2-(5,8-dimethyl-2-(piperidin-1-ylsulfonyl)-7-(p-tolyl)-1,2,3,4-tetrahydroisoquinolin-6-yl)acetic Acid]
  IC50: 23 nM

## Cc1ccc(-c2c(C)c3c(c(C)c2[C@H](OC(C)(C)C)C(=O)O)CCN(CCC2CCCCC2)C3)cc1 [Example 39, (S)-2-(tert-butoxy)-2-(2-(2-cyclohexylethyl)-5,8-dimethyl-7-(p-tolyl)-1,2,3,4-tetrahydroisoquinolin-6-yl)acetic Acid]
  IC50: 225 nM

## Cc1ccc(-c2c(C)c3c(c(C)c2[C@H](OC(C)(C)C)C(=O)O)CCN(C2CCC(C)(C)CC2)C3)cc1 [Example 40, (S)-2-(tert-butoxy)-2-(2-(4,4-dimethylcyclohexyl)-5,8-dimethyl-7-(p-tolyl)-1,2,3,4-tetrahydroisoquinolin-6-yl)acetic Acid]
  IC50: 11 nM

## Cc1ccc(-c2c(C)c3c(c(C)c2[C@H](OC(C)(C)C)C(=O)O)CCN(S(=O)(=O)c2ccccc2)C3)cc1 [Example 41, (S)-2-(tert-butoxy)-2-(5,8-dimethyl-2-(phenylsulfonyl)-7-(p-tolyl)-1,2,3,4-tetrahydroisoquinolin-6-yl)acetic Acid]
  IC50: 138 nM

## Cc1ccc(-c2c(C)c3c(c(C)c2[C@H](OC(C)(C)C)C(=O)O)CCN(C(=O)c2ccccn2)C3)cc1 [Example 42, (S)-2-(tert-butoxy)-2-(5,8-dimethyl-2-picolinoyl-7-(p-tolyl)-1,2,3,4-tetrahydroisoquinolin-6-yl)acetic Acid]
  IC50: 1140 nM

## Cc1ccc(-c2c(C)c3c(c(C)c2[C@H](OC(C)(C)C)C(=O)O)CCN(C(=O)c2cccnc2)C3)cc1 [Example 43, (S)-2-(tert-butoxy)-2-(5,8-dimethyl-2-nicotinoyl-7-(p-tolyl)-1,2,3,4-tetrahydroisoquinolin-6-yl)acetic Acid]
  IC50: 635 nM

## Cc1ccc(-c2c(C)c3c(c(C)c2[C@H](OC(C)(C)C)C(=O)O)CCN(C(=O)c2ccncc2)C3)cc1 [Example 44, (S)-2-(tert-butoxy)-2-(2-isonicotinoyl-5,8-dimethyl-7-(p-tolyl)-1,2,3,4-tetrahydroisoquinolin-6-yl)acetic Acid]
  IC50: 1010 nM

## Cc1ccc(-c2c(C)c3c(c(C)c2[C@H](OC(C)(C)C)C(=O)O)CCN(S(=O)(=O)C2CCCCC2)C3)cc1 [Example 45, (S)-2-(tert-butoxy)-2-(2-(cyclohexylsulfonyl)-5,8-dimethyl-7-(p-tolyl)-1,2,3,4-tetrahydroisoquinolin-6-yl)acetic Acid]
  IC50: 17 nM

## Cc1ccc(-c2c(C)c3c(c(C)c2[C@H](OC(C)(C)C)C(=O)O)CCN(C(=O)C(=O)N2CCCCC2)C3)cc1 [Example 46, (S)-2-(tert-butoxy)-2-(5,8-dimethyl-2-(2-oxo-2-(piperidin-1-yl)acetyl)-7-(p-tolyl)-1,2,3,4-tetrahydroisoquinolin-6-yl)acetic Acid]
  IC50: 276 nM

## Cc1ccc(-c2c(C)c3c(c(C)c2[C@H](OC(C)(C)C)C(=O)O)CCN(C(=O)C2CCCCC2)C3)cc1 [Example 47, (S)-2-(tert-butoxy)-2-(2-(cyclohexanecarbonyl)-5,8-dimethyl-7-(p-tolyl)-1,2,3,4-tetrahydroisoquinolin-6-yl)acetic Acid]
  IC50: 51 nM

## Cc1ccc(-c2c(C)c3c(c(C)c2[C@H](OC(C)(C)C)C(=O)O)CCN(C(=O)c2ccccc2)C3)cc1 [Example 48, (S)-2-(2-benzoyl-5,8-dimethyl-7-(p-tolyl)-1,2,3,4-tetrahydroisoquinolin-6-yl)-2-(tert-butoxy)acetic Acid]
  IC50: 325 nM

## Cc1ccc(-c2c(C)c3c(c(C)c2[C@H](OC(C)(C)C)C(=O)O)CCN(C2CC4CCC2C4)C3)cc1 (stereo partly drawn) [Example 49, (2S)-2-(2-(bicyclo[2.2.1]heptan-2-yl)-5,8-dimethyl-7-(p-tolyl)-1,2,3,4-tetrahydroisoquinolin-6-yl)-2-(tert-butoxy)acetic Acid]
  IC50: 11 nM

## Cc1ccc(-c2c(C)c3c(c(C)c2[C@H](OC(C)(C)C)C(=O)O)CCN(C2CCCCCC2)C3)cc1 [Example 50, (S)-2-(tert-butoxy)-2-(2-cycloheptyl-5,8-dimethyl-7-(p-tolyl)-1,2,3,4-tetrahydroisoquinolin-6-yl)acetic Acid]
  IC50: 5 nM

## Cc1ccc(-c2c(C)c3c(c(C)c2[C@H](OC(C)(C)C)C(=O)O)CCN(C2CCC4(CC2)CC4)C3)cc1 [Example 51, (S)-2-(tert-butoxy)-2-(5,8-dimethyl-2-(spiro[2.5]octan-6-yl)-7-(p-tolyl)-1,2,3,4-tetrahydroisoquinolin-6-yl)acetic Acid]
  IC50: 11 nM
